Where two headings read alike, the source gives them in different places.
Legend:
Format in all cases: in vivo
[1] = system: Abutilon theophrasti (ABUTH); test: Pre-emergence herbicidal action against ABUTH; settings: Dosage column 320 g/ha (title prints 3200 g/ha); scored visually after about 3 weeks; 100% = plants have died
Summary of the method: (§1)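 Pre-emergence soil-surface spray of compound, formulated as wettable powder or emulsion concentrate, in aqueous suspension or emulsion with 0.5% additive (600 l/ha; rate 320 g/ha or less). Activity rated visually after roughly 3 weeks in the greenhouse as a percentage of untreated controls, 0% meaning no difference.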

[2] = system: Alopecurus myosuroides (ALOMY); test: Pre-emergence herbicidal action against ALOMY; settings: scored visually after about 3 weeks, 100% = plants have died
Summary of the method: as §1

[3] = system: Amaranthus retroflexus (AMARE); test: Pre-emergence herbicidal action against AMARE; settings: visual scoring after about 3 weeks vs untreated controls
Summary of the method: as §1

[4] = system: Avena fatua (AVEFA); test: Pre-emergence herbicidal action against AVEFA; settings: 320 g/ha, visual scoring after about 3 weeks vs untreated controls
Summary of the method: as §1

[5] = system: Digitaria sanguinalis (DIGSA); test: Pre-emergence herbicidal action against DIGSA
Summary of the method: as §1

[6] = system: Echinochloa crus-galli (ECHCG); test: Pre-emergence herbicidal action against ECHCG; settings: dosage 320 g/ha
Summary of the method: as §1

[7] = system: Lolium rigidum (LOLRI); test: Pre-emergence herbicidal action against LOLRI; settings: dosage 320 g/ha
Summary of the method: as §1

[8] = system: Matricaria inodora (MATIN); test: Pre-emergence herbicidal action against MATIN; settings: dosage 320 g/ha
Summary of the method: as §1

[9] = system: Pharbitis purpurea (PHBPU); test: Pre-emergence herbicidal action against PHBPU; settings: dosage 320 g/ha
Summary of the method: as §1

[10] = system: Polygonum convolvulus (POLCO); test: Pre-emergence herbicidal action against POLCO
Summary of the method: as §1

[11] = system: Setaria viridis (SETVI); test: Pre-emergence herbicidal action against SETVI
Summary of the method: as §1

[12] = system: Verconica persica (VERPE); test: Pre-emergence herbicidal action against VERPE; settings: dosage 320 g/ha
Summary of the method: as §1

[13] = system: Viola tricolor (VIOTR); test: Pre-emergence herbicidal action against VIOTR
Summary of the method: as §1

[14] = system: Zea mays (ZEAMX); settings: pre-emergence, 80 g/ha, crop plant compatibility, in comparison to untreated controls
Summary of the method: (§2)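 Scoring: visual, % of untreated control, about 3 weeks after a pre-emergence application to the soil surface. Application used WP or EC formulations diluted in water with 0.5% additive at 600 l/ha; dosage levels are marked by suffixes a, b and c.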

[15] = system: Abutilon theophrasti (ABUTH); test: Post-emergence herbicidal action against ABUTH; settings: 80 g/ha, visual rating about 3 weeks after treatment vs untreated controls (100% = plants have died, 0% = like control plants)
Summary of the method: (§3)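 Greenhouse plants sprayed at the one-leaf stage, 2–3 weeks after sowing, with WP or EC formulations plus 0.5% additive at 600 l/ha water. Activity rated visually after about 3 weeks versus untreated controls (100% = dead, 0% = like control), at 320 g/ha or lower.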

[16] = system: Alopecurus myosuroides (ALOMY); test: Post-emergence herbicidal action against ALOMY; settings: visual rating about 3 weeks after treatment vs untreated controls (100% = plants have died, 0% = like control plants)
Summary of the method: as §3

[17] = system: Amaranthus retroflexus (AMARE); test: Post-emergence herbicidal action against AMARE
Summary of the method: as §3

[18] = system: Digitaria sanguinalis (DIGSA); test: Post-emergence herbicidal action against DIGSA; settings: 80 g/ha, visual rating about 3 weeks after treatment
Summary of the method: as §3

[19] = system: Echinochloa crus-galli (ECHCG); test: Post-emergence herbicidal action against ECHCG
Summary of the method: as §3

[20] = system: Pharbitis purpurea (PHBPU); test: Post-emergence herbicidal action against PHBPU; settings: dosage 80 g/ha
Summary of the method: as §3

[21] = system: Polygonum convolvulus (POLCO); test: Post-emergence herbicidal action against POLCO
Summary of the method: as §3

[22] = system: Setaria viridis (SETVI); test: Post-emergence herbicidal action against SETVI
Summary of the method: as §3

[23] = system: Viola tricolor (VIOTR); test: Post-emergence herbicidal action against VIOTR
Summary of the method: as §3

[24] = system: Oryza sativa (ORYSA); settings: crop plant compatibility
Summary of the method: (§4)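 Test crops were treated 2 to 3 weeks after sowing, once they reached one leaf, by spraying compound in water with 0.5% additive at 600 l/ha. Visual scoring compared them with untreated controls roughly 3 weeks on, and appendices a, b and c denote different doses.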

[25] = system: Zea mays (ZEAMX)
Summary of the method: as §4

[26] = system: Oryza sativa (ORYSA); settings: pre-emergence, 80 g/ha, crop plant compatibility, in comparison to untreated controls
Summary of the method: as §2

[27] = system: Avena fatua (AVEFA); test: Post-emergence herbicidal action against AVEFA; settings: 320 g/ha, visual rating about 3 weeks after treatment
Summary of the method: as §3

[28] = system: Lolium rigidum (LOLRI); test: Post-emergence herbicidal action against LOLRI; settings: dosage 320 g/ha
Summary of the method: as §3

[29] = system: Verconica persica (VERPE); test: Post-emergence herbicidal action against VERPE; settings: 320 g/ha, VERPE
Summary of the method: as §3

[30] = 80 g/ha, visual rating about 3 weeks after treatment vs untreated controls (100% = plants have died, 0% = like control plants)
[31] = 80 g/ha, effect in comparison to untreated controls

**Q.** With `CN(C)S(=O)(=O)NC(=O)COc1nn(-c2ncccc2F)c(-c2ccc(F)nc2)c1Br` [Example I-36] as the compound, how does the “Pre-emergence action against ABUTH” value [1] read?
**A.** 80%

**Q.** What about the “Pre-emergence action against ALOMY” value ([2]; 80 g/ha) of the same compound?
**A.** 100%

**Q.** And the “Pre-emergence action against ALOMY” value ([2]; 320 g/ha)?
**A.** 100%

**Q.** And the “Pre-emergence action against AMARE in %” value ([3]; 320 g/ha)?
**A.** 100%

**Q.** What about the “Pre-emergence action against AVEFA in %” value [4] of the same compound?
**A.** 90%

**Q.** And the “Pre-emergence action against DIGSA in %” value ([5]; 80 g/ha, visual scoring after about 3 weeks vs untreated controls)?
**A.** 100%

**Q.** And the “Pre-emergence action against DIGSA in %” value ([5]; dosage 320 g/ha)?
**A.** 100%

**Q.** And the “Pre-emergence action against ECHCG in %” value [6]?
**A.** 100%

**Q.** What about the “Pre-emergence action against LOLRI in %” value [7] of the same compound?
**A.** 100%

**Q.** And the “Pre-emergence action against MATIN in %” value [8]?
**A.** 100%

**Q.** What about the “Pre-emergence action against PHBPU in %” value [9] of the same compound?
**A.** 100%

**Q.** What about the “Pre-emergence action against POLCO in %” value ([10]; dosage 80 g/ha) of the same compound?
**A.** 80%

**Q.** And the “Pre-emergence action against POLCO in %” value ([10]; dosage 320 g/ha)?
**A.** 90%

**Q.** What about the “Pre-emergence action against SETVI in %” value ([11]; dosage 80 g/ha) of the same compound?
**A.** 100%

**Q.** And the “Pre-emergence action against SETVI in %” value ([11]; dosage 320 g/ha)?
**A.** 100%

**Q.** What about the “Pre-emergence action against VERPE in %” value [12] of the same compound?
**A.** 100%

**Q.** What about the “Pre-emergence action against VIOTR in %” value ([13]; 320 g/ha, Viola tricolor) of the same compound?
**A.** 100%

**Q.** What about the “Pre-emergence action against VIOTR in %” value ([13]; dosage 80 g/ha) of the same compound?
**A.** 100%

**Q.** And the “Pre-emergence action against ZEAMX in %” value [14]?
**A.** 0%

**Q.** And the “Post-emergence action against ABUTH in %” value [15]?
**A.** 80%

**Q.** And the “Post-emergence action against ALOMY in %” value ([16]; 80 g/ha)?
**A.** 90%

**Q.** What about the “Post-emergence action against AMARE in %” value [17, 30] of the same compound?
**A.** 80%

**Q.** And the “Post-emergence action against DIGSA in %” value [18]?
**A.** 90%

**Q.** What about the “Post-emergence action against ECHCG in %” value ([19]; dosage 80 g/ha) of the same compound?
**A.** 90%

**Q.** What about the “Post-emergence action against PHBPU in %” value [20] of the same compound?
**A.** 80%

**Q.** And the “Post-emergence action against POLCO in %” value ([21]; dosage 80 g/ha)?
**A.** 80%

**Q.** And the “Post-emergence action against SETVI in %” value ([22]; dosage 80 g/ha)?
**A.** 80%

**Q.** And the “Post-emergence action against VIOTR in %” value ([23]; 80 g/ha)?
**A.** 90%

**Q.** And the “Post-emergence action against ORYSA in %” value ([24]; 20 g/ha, effect vs untreated controls)?
**A.** 0%

**Q.** And the “Post-emergence action against ORYSA in %” value [24, 31]?
**A.** 0%

**Q.** What about the “Post-emergence action against ZEAMX in % (crop plant compatibility)” value ([25]; 20 g/ha, ZEAMX, effect in comparison to untreated controls) of the same compound?
**A.** 20%

**Q.** Which “Pre-emergence action against ABUTH” value [1] does the source give for `O=C(O)COc1nn(-c2ncccc2C(F)(F)F)c(-c2ccc(F)nc2)c1Br` [Example I-310] here?
**A.** 80%

**Q.** What about the “Pre-emergence action against ALOMY” value ([2]; 320 g/ha) of the same compound?
**A.** 100%

**Q.** And the “Pre-emergence action against AMARE in %” value ([3]; 80 g/ha)?
**A.** 80%

**Q.** And the “Pre-emergence action against AMARE in %” value ([3]; 320 g/ha)?
**A.** 100%

**Q.** And the “Pre-emergence action against AVEFA in %” value [4]?
**A.** 90%

**Q.** And the “Pre-emergence action against LOLRI in %” value [7]?
**A.** 100%

**Q.** And the “Pre-emergence action against POLCO in %” value ([10]; dosage 320 g/ha)?
**A.** 90%

**Q.** What about the “Pre-emergence action against VIOTR in %” value ([13]; 320 g/ha, Viola tricolor) of the same compound?
**A.** 100%

**Q.** And the “Pre-emergence action against VIOTR in %” value ([13]; dosage 80 g/ha)?
**A.** 90%

**Q.** What about the “Pre-emergence action against ORYSA in %” value [26] of the same compound?
**A.** 0%

**Q.** And the “Pre-emergence action against ZEAMX in %” value [14]?
**A.** 0%

**Q.** What about the “Post-emergence action against ALOMY in %” value ([16]; 320 g/ha) of the same compound?
**A.** 90%

**Q.** And the “Post-emergence action against AMARE in %” value [17, 30]?
**A.** 80%

**Q.** What about the “Post-emergence action against AMARE in %” value ([17]; 320 g/ha, visual rating about 3 weeks after treatment) of the same compound?
**A.** 80%

**Q.** What about the “Post-emergence action against AVEFA in %” value [27] of the same compound?
**A.** 100%

**Q.** And the “Post-emergence action against ECHCG in %” value ([19]; dosage 320 g/ha)?
**A.** 90%

**Q.** What about the “Post-emergence action against LOLRI in %” value [28] of the same compound?
**A.** 90%

**Q.** And the “Post-emergence action against POLCO in %” value ([21]; dosage 80 g/ha)?
**A.** 80%

**Q.** And the “Post-emergence action against POLCO in %” value ([21]; dosage 320 g/ha)?
**A.** 80%

**Q.** What about the “Post-emergence action against SETVI in %” value ([22]; dosage 320 g/ha) of the same compound?
**A.** 90%

**Q.** What about the “Post-emergence action against VERPE in %” value [29] of the same compound?
**A.** 80%

**Q.** And the “Post-emergence action against VIOTR in %” value ([23]; 80 g/ha)?
**A.** 80%

**Q.** And the “Post-emergence action against VIOTR in %” value ([23]; 320 g/ha)?
**A.** 90%

**Q.** What about the “Post-emergence action against ORYSA in %” value [24, 31] of the same compound?
**A.** 10%

**Q.** And the “Post-emergence action against ORYSA in %” value ([24]; 320 g/ha, effect in comparison to untreated controls)?
**A.** 20%

**Q.** And the “Post-emergence action against ZEAMX in %” value ([25]; crop plant compatibility, 80 g/ha, effect vs untreated controls)?
**A.** 0%
